Data from ChEMBL document CHEMBL1141867, “A small library of trisubstituted pyrimidines as antimalarial and antitubercular agents” (2005).
≈ marks a conversion by molar mass, not a printed value.

How the values were obtained:
[1] = tested on: Plasmodium falciparum; assay: Antimalarial activity against Plasmodium falciparum NF54; type: functional; details: NF-54
[2] = tested on: Mycobacterium tuberculosis; assay: Antitubercular activity against Mycobacterium tuberculosis H37Ra; type: functional

Row | SMILES | MIC [1] [µg/mL] | MIC [2] [µg/mL]
1 | COc1ccc(-c2cc(-c3ccc(O)cc3)nc(N3CCOCC3)n2)cc1OC | 0.5 (≈ 1.27 µM) | –
2 | Cc1ccc(-c2cc(-c3ccc(O)cc3)nc(NCCCN3CCOCC3)n2)cc1 | 2 (≈ 4.94 µM) | –
3 | Oc1ccc(-c2cc(-c3ccccc3)nc(NCCCn3ccnc3)n2)cc1 | 0.5 (≈ 1.35 µM) | 25 (≈ 67.3 µM)
4 | COc1ccc(-c2cc(-c3ccc(O)cc3)nc(NCCCn3ccnc3)n2)cc1OC | 0.25 (≈ 0.579 µM) | 12.5 (≈ 29 µM)
5 | CCN(CC)CCCC(C)Nc1nc(-c2ccc(O)cc2)cc(-c2cc(OC)ccc2OC)n1 (configuration not stated) | 10 (≈ 21.5 µM) | 12.5 (≈ 26.9 µM)
6 | Oc1ccc(-c2cc(-c3ccccc3)nc(NCCCN3CCOCC3)n2)cc1 | 2 (≈ 5.12 µM) | 12.5 (≈ 32 µM)
7 | Cc1ccc(-c2cc(-c3ccc(O)cc3)nc(N3CCOCC3)n2)cc1 | 2 (≈ 5.76 µM) | –
8 | Cc1ccc(-c2cc(-c3ccc(O)cc3)nc(NCCCn3ccnc3)n2)cc1 | 2 (≈ 5.19 µM) | –
9 | CCN(CC)CCCC(C)Nc1nc(-c2ccccc2)cc(-c2ccc(O)cc2)n1 (configuration not stated) | 10 (≈ 24.7 µM) | 25 (≈ 61.8 µM)
10 | Oc1ccc(-c2cc(-c3ccccc3)nc(N3CCOCC3)n2)cc1 | 2 (≈ 6 µM) | –
11 | COc1ccc(-c2cc(-c3ccc(O)cc3)nc(NCCCN3CCOCC3)n2)cc1 | 1 (≈ 2.38 µM) | 12.5 (≈ 29.7 µM)
12 | COc1ccc(OC)c(-c2cc(-c3ccc(O)cc3)nc(NCCCn3ccnc3)n2)c1 | 0.25 (≈ 0.579 µM) | 12.5 (≈ 29 µM)
13 | COc1ccc(OC)c(-c2cc(-c3ccc(O)cc3)nc(NCCCN3CCOCC3)n2)c1 | 0.5 (≈ 1.11 µM) | 25 (≈ 55.5 µM)
14 | CCN(CC)CCCC(C)Nc1nc(-c2ccc(O)cc2)cc(-c2ccc(OC)cc2)n1 (configuration not stated) | 10 (≈ 23 µM) | 12.5 (≈ 28.8 µM)
15 | CCN(CC)CCCC(C)Nc1nc(-c2ccc(C)cc2)cc(-c2ccc(O)cc2)n1 (configuration not stated) | 50 (≈ 119 µM) | –
16 | COc1ccc(-c2cc(-c3ccc(O)cc3)nc(NCCCN3CCOCC3)n2)cc1OC | 0.5 (≈ 1.11 µM) | 25 (≈ 55.5 µM)
17 | CCN(CC)CCCC(C)Nc1nc(-c2ccc(O)cc2)cc(-c2ccc(OC)c(OC)c2)n1 (configuration not stated) | 2 (≈ 4.3 µM) | 12.5 (≈ 26.9 µM)
18 | COc1ccc(OC)c(-c2cc(-c3ccc(O)cc3)nc(N3CCOCC3)n2)c1 | 0.5 (≈ 1.27 µM) | –
19 | COc1ccc(-c2cc(-c3ccc(O)cc3)nc(N3CCOCC3)n2)cc1 | 1 (≈ 2.75 µM) | –
20 | COc1ccc(-c2cc(-c3ccc(O)cc3)nc(NCCCn3ccnc3)n2)cc1 | 1 (≈ 2.49 µM) | 12.5 (≈ 31.1 µM)
